Tests used:
Assay in all cases: Tumor cell killing, viable cell count by trypan blue exclusion
Assay type in all cases: cell-based
DLD1 tumor cell line = conditions: DLD1 cells, viable cells counted 96 hours after treatment
Experimental: (§1) The effect of the amino-substituted sulfonanilides on normal fibroblasts and on tumor cells may be determined by the assay described by Latham et al., Oncogene 12:827–837 (1996). Normal diploid lung human fibroblasts (HFL-1) or tumor cells (e.g., prostate, colorectal, breast, glial, pancreatic, ovarian, lung or leukemic) are plated in 6-well dishes at a cell density of 1.0×10^5 cells per […]. The plated cells are treated 24 hours later with various concentrations of amino-substituted sulfonanilide dissolved in dimethyl sulfoxide (DMSO). The total number of viable cells is determined 96 hours later by trypsinizing the wells and counting the number of viable cells, as determined by trypan blue exclusion, using a hemacytometer. Normal HFL cells are treated with the same compounds under the same conditions of concentration and time. Biological data for compounds of the present invention is shown in Table 5 below in DU145, BT20, DLD1 and H157 tumor cell lines.

DU145 tumor cell line = conditions: DU145 cells, viable cells counted 96 hours after treatment
Experimental: as §1

H157 tumor cell line = conditions: H157 cells, viable cells counted 96 hours after treatment
Experimental: as §1

BT20 tumor cell line = conditions: BT20 cells, viable cells counted 96 hours after treatment
Experimental: as §1

## (E)-2,4,6-Trimethoxystyryl-N-[(3-amino)-4-methoxyphenyl]-sulfonamide-L-lysineamide hydrochloride [Example 3]
DLD1 tumor cell line
  tumor cell killing activity DLD1: + (A (+) in the table indicates that the compound showed tumor cell killing activity at a concentration of less than 20 micromolar)
DU145 tumor cell line
  tumor cell killing activity DU145: + (A (+) in the table indicates that the compound showed tumor cell killing activity at a concentration of less than 20 micromolar)
H157 tumor cell line
  tumor cell killing activity H157: + (A (+) in the table indicates that the compound showed tumor cell killing activity at a concentration of less than 20 micromolar)
BT20 tumor cell line
  tumor cell killing activity BT20: + (A (+) in the table indicates that the compound showed tumor cell killing activity at a concentration of less than 20 micromolar)

## COc1cc(OC)c(/C=C/S(=O)(=O)Nc2ccc(OC)c(NC(=O)CCl)c2)c(OC)c1 [Example 7, (E)-2,4,6-Trimethoxystyryl-N-[(3-chloroacetamido)-4-methoxyphenyl]-sulfonamide]
DLD1 tumor cell line
  tumor cell killing activity DLD1: + (A (+) in the table indicates that the compound showed tumor cell killing activity at a concentration of less than 20 micromolar)
DU145 tumor cell line
  tumor cell killing activity DU145: + (A (+) in the table indicates that the compound showed tumor cell killing activity at a concentration of less than 20 micromolar)
H157 tumor cell line
  tumor cell killing activity H157: + (A (+) in the table indicates that the compound showed tumor cell killing activity at a concentration of less than 20 micromolar)
BT20 tumor cell line
  tumor cell killing activity BT20: + (A (+) in the table indicates that the compound showed tumor cell killing activity at a concentration of less than 20 micromolar)

## COc1cc(OC)c(/C=C/S(=O)(=O)Nc2ccc(OC)c(NC(=O)CN3CCN(C)CC3)c2)c(OC)c1 [Example 8, (E)-2,4,6-Trimethoxystyryl-N-[3-(4-methylpiperazinyl)-acetamido-4-methoxyphenyl]sulfonamide]
DLD1 tumor cell line
  tumor cell killing activity DLD1: + (A (+) in the table indicates that the compound showed tumor cell killing activity at a concentration of less than 20 micromolar)
DU145 tumor cell line
  tumor cell killing activity DU145: + (A (+) in the table indicates that the compound showed tumor cell killing activity at a concentration of less than 20 micromolar)
H157 tumor cell line
  tumor cell killing activity H157: + (A (+) in the table indicates that the compound showed tumor cell killing activity at a concentration of less than 20 micromolar)
BT20 tumor cell line
  tumor cell killing activity BT20: + (A (+) in the table indicates that the compound showed tumor cell killing activity at a concentration of less than 20 micromolar)

## COc1cc(OC)c(/C=C/S(=O)(=O)Nc2ccc(OC)c(NC(=O)CO)c2)c(OC)c1 [Example 6, (E)-2,4,6-Trimethoxystyryl-N-[(3-hydroxyacetamido)-4-methoxy-phenyl]sulfonamide]
DLD1 tumor cell line
  tumor cell killing activity DLD1: + (A (+) in the table indicates that the compound showed tumor cell killing activity at a concentration of less than 20 micromolar)
DU145 tumor cell line
  tumor cell killing activity DU145: + (A (+) in the table indicates that the compound showed tumor cell killing activity at a concentration of less than 20 micromolar)
H157 tumor cell line
  tumor cell killing activity H157: + (A (+) in the table indicates that the compound showed tumor cell killing activity at a concentration of less than 20 micromolar)
BT20 tumor cell line
  tumor cell killing activity BT20: + (A (+) in the table indicates that the compound showed tumor cell killing activity at a concentration of less than 20 micromolar)

## COc1cc(OC)c(/C=C/S(=O)(=O)Nc2ccc(OC)c(NCC(=O)O)c2)c(OC)c1 [Example 5, (E)-2,4,6-Trimethoxystyryl-N-[(3-carboxymethylamino)-4-methoxyphenyl]sulfonamide]
DLD1 tumor cell line
  tumor cell killing activity DLD1: + (A (+) in the table indicates that the compound showed tumor cell killing activity at a concentration of less than 20 micromolar)
DU145 tumor cell line
  tumor cell killing activity DU145: + (A (+) in the table indicates that the compound showed tumor cell killing activity at a concentration of less than 20 micromolar)
H157 tumor cell line
  tumor cell killing activity H157: + (A (+) in the table indicates that the compound showed tumor cell killing activity at a concentration of less than 20 micromolar)
BT20 tumor cell line
  tumor cell killing activity BT20: + (A (+) in the table indicates that the compound showed tumor cell killing activity at a concentration of less than 20 micromolar)

## COc1cc(OC)c(/C=C/S(=O)(=O)Nc2ccc(OC)c(NCC(=O)N(C)C)c2)c(OC)c1 [Example 1, (E)-2,4,6-Trimethoxystyryl-N-[(3-N,N-dimethylacetamido)-4-methoxyphenyl]sulfonamide]
DLD1 tumor cell line
  tumor cell killing activity DLD1: + (A (+) in the table indicates that the compound showed tumor cell killing activity at a concentration of less than 20 micromolar)
DU145 tumor cell line
  tumor cell killing activity DU145: + (A (+) in the table indicates that the compound showed tumor cell killing activity at a concentration of less than 20 micromolar)
H157 tumor cell line
  tumor cell killing activity H157: + (A (+) in the table indicates that the compound showed tumor cell killing activity at a concentration of less than 20 micromolar)
BT20 tumor cell line
  tumor cell killing activity BT20: + (A (+) in the table indicates that the compound showed tumor cell killing activity at a concentration of less than 20 micromolar)

## COc1cc(OC)c(/C=C/S(=O)(=O)Nc2ccc(OC)c(NC(C)=O)c2)c(OC)c1 [Example 2, (E)-2,4,6-Trimethoxystyryl-N-[(3-acetamido)4-methoxyphenyl]-sulfonamide]
DLD1 tumor cell line
  tumor cell killing activity DLD1: + (A (+) in the table indicates that the compound showed tumor cell killing activity at a concentration of less than 20 micromolar)
DU145 tumor cell line
  tumor cell killing activity DU145: + (A (+) in the table indicates that the compound showed tumor cell killing activity at a concentration of less than 20 micromolar)
H157 tumor cell line
  tumor cell killing activity H157: + (A (+) in the table indicates that the compound showed tumor cell killing activity at a concentration of less than 20 micromolar)
BT20 tumor cell line
  tumor cell killing activity BT20: + (A (+) in the table indicates that the compound showed tumor cell killing activity at a concentration of less than 20 micromolar)

## COc1cc(OC)c(/C=C/S(=O)(=O)Nc2ccc(OC)c(NC(=O)COC(C)=O)c2)c(OC)c1 [Example 4, (E)-2,4,6-Trimethoxystyryl-N-[(3-acetoxyacetamido)-4-methoxy-phenyl]sulfonamide]
DLD1 tumor cell line
  tumor cell killing activity DLD1: + (A (+) in the table indicates that the compound showed tumor cell killing activity at a concentration of less than 20 micromolar)
DU145 tumor cell line
  tumor cell killing activity DU145: + (A (+) in the table indicates that the compound showed tumor cell killing activity at a concentration of less than 20 micromolar)
H157 tumor cell line
  tumor cell killing activity H157: + (A (+) in the table indicates that the compound showed tumor cell killing activity at a concentration of less than 20 micromolar)
BT20 tumor cell line
  tumor cell killing activity BT20: + (A (+) in the table indicates that the compound showed tumor cell killing activity at a concentration of less than 20 micromolar)
